From patent US8153784B2, “Imaging of enzyme activity” (The General Hospital Corporation, priority 2004, dated 2012)

Key:
[1] = target: T1, human MPO embedded in Matrigel (Homo sapiens, UniProt P05164); assay: MPO/Matrigel implant mouse model, T1-weighted MR imaging; type: in vivo; details: mice; right MPO/Matrigel vs left control; 1.5 T
T1 construct: purchased BioDesign, Inc
T1 sequence (P05164 49-745): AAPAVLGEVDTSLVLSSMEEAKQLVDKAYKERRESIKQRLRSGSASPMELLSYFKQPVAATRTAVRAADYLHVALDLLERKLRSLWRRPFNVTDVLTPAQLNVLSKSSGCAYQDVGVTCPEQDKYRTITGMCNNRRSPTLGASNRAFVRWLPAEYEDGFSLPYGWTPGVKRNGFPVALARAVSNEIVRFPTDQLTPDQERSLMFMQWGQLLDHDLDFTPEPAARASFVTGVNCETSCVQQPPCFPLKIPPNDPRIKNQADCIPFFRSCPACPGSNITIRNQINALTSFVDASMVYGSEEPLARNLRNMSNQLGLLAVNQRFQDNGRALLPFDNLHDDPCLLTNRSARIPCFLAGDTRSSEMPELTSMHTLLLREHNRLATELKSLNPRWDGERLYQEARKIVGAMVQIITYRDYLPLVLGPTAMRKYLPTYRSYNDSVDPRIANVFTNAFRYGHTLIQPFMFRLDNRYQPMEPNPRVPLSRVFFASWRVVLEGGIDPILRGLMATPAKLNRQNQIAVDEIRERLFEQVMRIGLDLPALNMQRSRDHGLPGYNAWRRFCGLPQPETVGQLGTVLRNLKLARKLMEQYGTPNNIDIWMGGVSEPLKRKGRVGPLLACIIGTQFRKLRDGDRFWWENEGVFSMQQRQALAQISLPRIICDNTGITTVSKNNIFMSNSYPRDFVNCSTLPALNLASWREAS
Protocol: To evaluate the monomeric substrates in vivo, we devised a mouse model that harbored 400 μL of Matrigel basement membrane matrix gel mixed 1:1 by volume with a solution containing 15 U of human MPO and glucose oxidase (as a source of hydrogen peroxide) that was injected into the right flank of the mouse. The left flank was injected with the enzyme-free Matrigel mixture. We subsequently performed T1-weighted MR imaging after the intravenous injection of Gd-DTPA-diSer substrate at the dose of […].
The MR imaging experiments were performed on a 1.5 T GE Excite scanner and a 4.7 T Bruker Pharmascan scanner. For all MR imaging experiments, precontrast T2-(TR=2000, TE=100, ETL=8, NEX=4, fast spin echo sequence) and T1-weighted images (TR=500, TE=11, NEX=4, spin echo sequence) with fat saturation were initially performed to locate the gels or area of inflammation. The substrates (0.3 mmol/kg) were subsequently injected via the tail vein of the mouse. The mouse was immediately imaged after the injection of the contrast agent using multiple T1-weighted sequences with fat saturation for at least 3 hours.
(§1) Ten-week old C57BL6 male mice were obtained from Jackson Laboratories. A total of 22 mice were used for the study. • 1. MPO/Matrigel imaging experiments: Matrigel™ (Beckton-Dickinson), a […] basement membrane matrix gel was used to immobilize human MPO and glucose oxidase (to supply H2O2 required for detecting MPO oxidative activity, Calbiochem). This was chosen to reflect deposits of human MPO in inflamed tissue in a mouse model. 400 μL of a mixture of Matrigel™ and MEM (Cambrex) was injected slowly into the thighs of each mouse one hour prior to imaging. The right thigh mixture also contained 15 U of MPO and 4 U of glucose oxidase (Calbiochem), while the left thigh mixture contained no enzyme and thus serves as an internal control. A total of 15 mice were used (3 mice each for 5-HT-DOTA(Gd), bis-5-HT-DTPA(Gd), bis-5-HT-DTPA-^111In, bis-tyramide-DTPA(Gd), and DTPA(Gd)). • 2. LPS/Matrigel experiments (n=3): This model was developed to induce endogeneous mouse MPO secretion and activation. 200 μL total volume Matrigel containing 10% heparin was injected slowly into the thighs of the mice 4 days prior to imaging. The right-sided mixture also contained E. coli lipopolysaccharide (LPS) at 10 μg/mL. One mouse was sacrificed for immunohistochemistry. • 3. Myositis experiments (n=4): LPS at 100 μg/mL in PBS was injected into each mouse intramuscularly in the right flank to produce myositis. The mice are imaged 24 hours after injection.
For normalized signal intensity measured on T1-weighted images, mean±standard deviation (SD) values were calculated in regions of interest (ROI). Contrast-to-noise (CNR) ratios were computed for each ROI according to the formula

human neutrophil MPO = target: T2, human neutrophil MPO (Homo sapiens, UniProt P05164); assay: MPO-mediated polymerization of DOTA(Gd) substrates: T1/T2 relaxivity change; type: biochemical; details: for relaxivity ratio: ˜2000 U of MPO activity
T2 construct: purchased BioDesign Inc
Protocol: (§2) Reactions with HRP and MPO were carried out at room temperature in the presence of 0.5-1 mM substrate dissolved in 0.5 ml PBS containing H2O2 (2 mM). Reaction was initiated by adding an aliquot containing the enzyme (either HRP or MPO) and vortexing. After at least a 30 min incubation period T1 was measured using inversion-recovery pulse sequence Bruker Minispec (Buker Analytics, North Bellirica Mass.) at 0.47 T (20 MHz). Size-exclusion HPLC of reaction products was performed on TSK G3000SWXL macroporous column (Supelco) eluted with 0.1 M triethylammonium acetate, pH 7.0 at 1 ml/min.
(§3) Standard 96-well plates were prepared and imaged on a 1.5 T whole body clinical General Electric Signa MRI scanner utilizing a standard 3 inch surface coil. Inversion recovery sequences were used to measure T1 relaxation and spin echo sequences were utilized to measure T2 relaxation. T2 weighted images were obtained with TR=5000 ms and TE=100 ms with a fast spin echo sequence. T1 weighted images were obtained with spin echo sequences with the following parameters: TR=100, 200, 350, or 500, TE=11. For the Matrigel™ experiments, a relatively T2 weighted image was obtained at TR=300 ms and TE=200 ms. Single-exponential models were used to obtain T1 and T2. The relaxivities were computed by normalizing relaxation rates to the concentration of gadolinium in each sample, obtained by inductive coupled plasma (ICP) analysis performed by Galbraith Laboratories.
To determine the effect of myeloperoxidase on the substrates, we performed T1 and T2 relaxivity measurements in aqueous solutions, with and without MPO and hydrogen peroxide, at 0.47 T and 1.5 T (the results are summarized in FIGS. 3A and 3B for tyramide-DOTA(Gd) and FIGS. 4A and 4B for 5-HT-DOTA(Gd)). For reference, the two substrates were also reacted with HRP (solid symbols in FIGS. 3A and 3B and FIGS. 4A and 4B).

MPO-I = target: T3, MPO-I (Homo sapiens, UniProt P05164); details: cited from earlier work
T3 sequence (P05164 49-745): T1 sequence (P05164 49-745)

[2] = Biodistribution of 111In tracer; type: in vivo, mouse; details: mice, 6 h post injection
Protocol: (§4) 80-100 μCi of ^111In-bis-5-HT-DTPA in 200 μL of saline was injected intravenously into three mice prepared in the same manner as in the MPO/Matrigel MR imaging experiments. The animals were imaged 3 hours after injection on a high resolution X-SPECT/CT system (Gamma Medica). Six hours after injection, the animals were sacrificed and biodistribution was determined in major organs. The % dose accumulated per gram of major organs was determined by using the 1480 Wizard gamma counter (Perkin-Elmer).

MPO = target: T4, MPO (Homo sapiens, UniProt P05164); assay: SPECT-CT imaging of MPO/Matrigel implants with 111In tracer; type: in vivo, mouse; design: purchased BioDesign, Inc
T4 sequence (P05164 49-745): T1 sequence (P05164 49-745)
Protocol: as §1, §4

[3] = target: T5, horseradish peroxidase (HRP) (Armoracia rusticana, UniProt P00433); assay: HRP-mediated polymerization of DOTA(Gd) substrates: relaxivity change; type: biochemical; design: purchased Sigma
T5 sequence (P00433 31-338): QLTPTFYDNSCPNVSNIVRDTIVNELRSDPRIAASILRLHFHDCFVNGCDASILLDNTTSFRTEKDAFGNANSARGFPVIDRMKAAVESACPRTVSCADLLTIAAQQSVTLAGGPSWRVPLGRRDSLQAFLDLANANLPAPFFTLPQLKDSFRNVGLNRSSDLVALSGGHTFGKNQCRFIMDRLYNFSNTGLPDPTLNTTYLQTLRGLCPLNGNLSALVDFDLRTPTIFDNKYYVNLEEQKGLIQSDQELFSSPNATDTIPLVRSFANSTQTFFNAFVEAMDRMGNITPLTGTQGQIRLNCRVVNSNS
Protocol: as §2
as §3, with “The relaxivities were computed by normalizing relaxation rates to the concentration of gadolinium in each sample, obtained by inductive coupled plasma (ICP) analysis performed by Galbraith Laboratories.” left out

[4] = target: T5, horseradish peroxidase (HRP); assay: Pseudo-first-order rate constants of HRP-mediated conversion (relaxation times over time, 0.47 T); type: biochemical, horseradish; design: purchased Sigma-Aldrich type XII (catalogue number not given); details: from T1 measurements, mean±SD
Protocol: Kinetics of the samples were observed by measuring T1 and T2 at 0.47 T and 40° C. of the samples over at least a 24 hour period. At different time points, 1 M of sodium azide (final concentration=0.17 M) was added to stop the enzyme mediated reaction. The resultant progress curve was fitted with an empirical mathematical model and analyzed according to the Guggenheim method to obtain the pseudo-first-order rate constants (Guggenheim E A. Philos. Mag. 1926; 2:538).
An important property of a suitable substrate for an enzyme is the kinetics of enzymatic reaction. To determine the utility of the paramagnetic complexes as suitable substrates for human myeloperoxidase (MPO), we measured the pseudo-first-order rate constant of these substrates in MPO, and compared to the same substrates' reactions in Horse Radish Peroxidase (HRP) by monitoring the changes in relaxation time over time. […] The results shown were obtained using T1 measurements. T2 measurements yielded nearly identical results. The results are presented as mean±SD. N/A=not applicable.

## O=C(O)CN(CCN(CC(=O)O)CC(=O)NCCc1c[nH]c2ccc(O)cc12)CCN(CC(=O)O)CC(=O)NCCc1c[nH]c2ccc(O)cc12 [Compound 2]
[1]
  enhancement of MPO implant compared with control implant: significantly increased enhancement

## CC(C(=O)NCC(=O)NCCc1ccc(O)c(O)c1)N1CCN(CC(=O)[O-])CCN(CC(=O)[O-])CCN(CC(=O)[O-])CC1.[Gd+3] (stereo not shown) [hydroxytyramide-DOTA(Gd), Glycylmethyl DOTA(Gd) Hydroxytyramide]
Human neutrophil MPO
  reaction with MPO: does not react with MPO
  relaxivity increase from reaction with MPO: did not result in a substantially significant relaxivity increase

## NCCc1c[nH]c2ccc(O)cc12 [serotonin, 3-(2-aminoethyl)-5-hydroxyindole]
MPO-I; about 5,000 times higher excess of chloride
  MPO-mediated oxidation in excess chloride: could not be completely stopped
MPO-I; neutral pH
  kinetic constant of the MPO-I reaction relative to the reaction with chloride: about 10 times

## O=C([O-])CN(CCN(CC(=O)[O-])CC(=O)NCCc1c[nH]c2ccc(O)cc12)CCN(CC(=O)[O-])CC(=O)NCCc1c[nH]c2ccc(O)cc12.[111In+3] [^111In-bis-5-HT-DTPA]
[2]
  injected dose excreted: 90%
  organs holding most of the remaining dose: spleen, bowel, kidney, and liver
[2]; listed as 111In-chelated monomeric substrate
  organs holding most of the remaining dose: spleen, kidneys, bowel, and liver
MPO; mice n=3, SPECT-CT 3 hours after injection
  increase in the radioactivity of the right leg (with MPO) vs. the left leg (without MPO): 2.3±0.3 fold
MPO; mice, 6 h post injection
  increase in count in the dissected gel with embedded MPO: greater than 4 fold
MPO; mouse, SPECT/CT 3 hours after the injection
  uptake on the side containing MPO: significant increased uptake

## CC(C(=O)NCC(=O)NCCc1ccc(O)cc1)N1CCN(CC(=O)[O-])CCN(CC(=O)[O-])CCN(CC(=O)[O-])CC1.[Gd+3] (stereo not shown) [tyramide-DOTA(Gd), Glycylmethyl DOTA(Gd) Tyramide]
[3]; 0.47 T
  relaxivity ratio: about 2.3 times
[3]; 1.5 T
  relaxivity ratio: about 2.1 times
Human neutrophil MPO; 0.47 T
  relaxivity ratio: 1.7 times
Human neutrophil MPO; 1.5 T
  relaxivity ratio: 1.4 times
Human neutrophil MPO; 2000 U MPO
  T1 shortening relative to the HRP result: 70-75%
Human neutrophil MPO; assuming a linear response to the amount of MPO
  MPO needed to reach >90% of the T1 shortening seen with HRP: > 3000 U
Human neutrophil MPO; equivalent amount of MPO, clinical imaging strength
  increase in relaxivity of polymer product: 1.4 times
[4]
  Pseudo first-order rate constant: 0.0095 s⁻¹
